One data set relates to MDA MB 231. Kind of data set: MTT cell proliferation assay. The format is cell-based. The settings on record: MDA MB 231 breast cancer, 48 h of drug treatment. As for the experimental part: (§1) The cell lines used in study were initially procured from the National Centre for Cell Sciences (NCCS), Pune, India, and maintained in DMEM. The cell line was cultured in 25 cm^2 tissue culture flask with DMEM supplemented with 10% FBS, sodium bicarbonate, L-glutamine, and antibiotic solution containing: streptomycin (100 μg/ml), penicillin (100 U/ml). Cultured cell line was kept at 37 °C in a humidified 5% CO2 incubator (VWR, USA).
(§2) The compounds found to have good antimicrobial potential were then screened for their cytotoxicity using MTT […]) assay. 1 × 10^4 cells/well were seeded in 100 µl DMEM/MEM, supplemented with 10% FBS in each well of 96-well microculture plates and incubated for 24 h at 37 °C in a CO2 incubator. After incubation, all the prepared/synthesized compounds were added to the cells at 10, 25, 50 and 100 µg concentrations for 48 h. After 48 h of drug treatment, 10 µl MTT (5 mg/ml) was added to each well and the plates were further incubated for 4 h. Then the supernatant from each well was carefully removed, formazan crystals were dissolved in 100 µl of DMSO and absorbance at 570 nm wavelength was recorded on an ELISA reader. The IC50 value was calculated using the linear regression equation i.e. Y = Mx + C. Here, Y = 50, M and C values were derived from the viability graph. The assay was performed in triplicate.

A further data set has as its system K562. Kind of data set: MTT cell proliferation assay. The format is cell-based. The settings on record: Homo sapiens, K562 leukemia, 48 h of drug treatment. On the procedure:
as §1, §2
(In general: Tetrazolium dyes change colour on reduction, which living cells bring about.)

The subject of another data set is HCT 116. The data set can be described thus: MTT cell proliferation assay. It is filed as cell-based. The settings on record: Homo sapiens, HCT-116, 48 h, HCT 116 colon cancer, 48 h of drug treatment. As for the experimental part:
as §1, §2

The test system of data set [1] is B. subtilis. The data set can be described thus: Minimum bactericidal concentration (MBC). It is filed as cell-based. The conditions noted are these: Bacillus subtilis.
Data set [2] deals with S. aureus. Kind of data set: Minimum bactericidal concentration (MBC). The conditions noted are these: Staphylococcus aureus. It is filed as cell-based.
The test system of data set [3] is A. niger. The data set can be described thus: Minimum fungicidal concentration (MFC). It is filed as cell-based. The settings on record: Aspergillus niger, read-out: MBC/MFC.
Data set [4] relates to A. niger. Kind of data set: MIC by tube dilution method. It is filed as cell-based. The conditions noted are these: Aspergillus niger, 168 h, 7 days at 25 °C, read-out: MIC.
The test system of data set [5] is K. pneumonia. The data set can be described thus: Minimum bactericidal concentration (MBC). The format is cell-based. The settings on record: Klebsiella pneumoniae.
Data set [6] has as its system S. aureus. Kind of data set: MIC by tube dilution method. The conditions noted are these: Staphylococcus aureus, 24 h at 37 °C, read-out: MIC. The format is cell-based.
In data set [7] the test system is E. coli. Kind of data set: Minimum bactericidal concentration (MBC). The settings on record: Escherichia coli. The format is cell-based.
Data set [8] concerns A. fumigatus. The data set can be described thus: MIC by tube dilution method. The settings on record: Aspergillus fumigatus, 168 h, 7 days at 25 °C, read-out: MIC. It is filed as cell-based.
The subject of data set [9] is K. pneumonia. The data set can be described thus: MIC by tube dilution method. The format is cell-based. The conditions noted are these: Klebsiella pneumoniae, 24 h, 24 h at 37 °C, read-out: MIC.
For data set [10], the system named is S. enterica. The data set can be described thus: MIC by tube dilution method. The format is cell-based. The conditions noted are these: Salmonella enterica, 24 h, 24 h at 37 °C, read-out: MIC.
The subject of data set [11] is B. subtilis. The data set can be described thus: MIC by tube dilution method. It is filed as cell-based. The conditions noted are these: Bacillus subtilis, 24 h at 37 °C, read-out: MIC.
The subject of data set [12] is A. fumigatus. Kind of data set: Minimum fungicidal concentration (MFC). It is filed as cell-based. The conditions noted are these: Aspergillus fumigatus, read-out: MBC/MFC.
In data set [13] the test system is S. enterica. Kind of data set: Minimum bactericidal concentration (MBC). It is filed as cell-based. The conditions noted are these: Salmonella enterica, read-out: MBC/MFC. On the procedure:
After MIC assessment, the indole derivatives (DS1–DS21), were additionally evaluated for MBC and MFC values. […] The 10–15 ml of nutrient agar and Sabouraud dextrose agar was added to the petri plates for bacterial and fungal samples respectively with gentle shaking of plates in order to mix the culture throughout the media. Allowed the media to solidify. The petri plates were then incubated for the predefined time and temperature as referenced already for bacterial and fungal cultures respectively. The plates were then investigated visually for the development of microbial growth. The MBC and MFC were stated as the minimum concentration of the compounds in aliquots showing no visual growth after incubation.

Data set [14] relates to E. coli. The data set can be described thus: MIC by tube dilution method. The conditions noted are these: Escherichia coli, 24 h, 24 h at 37 °C, read-out: MIC. The format is cell-based.
A further data set has as its system HEK-293. The data set can be described thus: MTT cell proliferation assay, normal cells. It is filed as cell-based. The conditions noted are these: Homo sapiens, HEK293, HEK-293 normal cells, 48 h of drug treatment. As for the experimental part:
as §1, §2

[15] abbreviates: Homo sapiens, MDA-MB-231, 48 h, read-out: IC50.

Converted amounts (≈) assume the structure as drawn. Read-outs that look alike come from different tables or passages of the source.

For `COc1cccc2c1C(=O)c1c(O)c3c(c(O)c1C2=O)C[C@@](O)(C(=O)CO)C[C@@H]3O[C@H]1C[C@H](N)[C@H](O)[C@H](C)O1` [DOX, doxorubicin, reference compound], the IC50 in the data set on MDA MB 231 (setting [15]) worked out at 3 µg/mL (≈ 5.52 µM); in the data set on MDA MB 231 it was 3.08 ± 0.95 µg/mL (≈ 5.67 µM); in the data set on K562 it was 2.62 ± 0.65 µg/mL (≈ 4.82 µM); in the data set with HCT 116, 3.37 ± 0.37 µg/mL (≈ 6.2 µM).

Consider `CCOC(=O)c1c(/N=C(/C)c2ccc(/N=N\c3c[nH]c4ccccc34)cc2)sc2c1CCCC2` [DS-2, Ethyl 2-((Z)-(1-(4-((Z)-(1H-indol-3-yl)diazenyl)phenyl)ethylidene)amino)-4,5,6,7-tetrahydrobenzo[b]thiophene-3-carboxylate], for which the melting point lay within 260 to 265 °C. In the data set with B. subtilis [1], the MBC is 125 µg/mL (≈ 266 µM). Further, in the data set with S. aureus [2], the MBC was 125 µg/mL (≈ 266 µM). In the data set with MDA MB 231 (setting [15]), the IC50 is 57.6 ± 3.68 µg/mL (≈ 122 µM). Further, it took 140 ± 4.4 µg/mL (≈ 298 µM) to reach half-maximal inhibition with K562 (IC50). The same molecule showed an IC50 in the data set on HCT 116 of 117 ± 4.28 µg/mL (≈ 248 µM). Further, the MFC in the data set on A. niger [3] was found to be 125 µg/mL (≈ 266 µM). In addition, in the data set on A. niger [4], the MIC is 62.5 µg/mL (≈ 133 µM). Also, in the data set on K. pneumonia [5], the MBC stood at 62.5 µg/mL (≈ 133 µM). The MIC with S. aureus [6] was 62.5 µg/mL (≈ 133 µM). Besides, the MBC with E. coli [7] was 16.2 µg/mL (≈ 34.5 µM). Further, in the data set with A. fumigatus [8], the MIC came to 15.6 µg/mL (≈ 33.2 µM). Further, the MIC with K. pneumonia [9] came to 31.2 µg/mL (≈ 66.4 µM). Moreover, the MIC with S. enterica [10] was found to be 15.6 µg/mL (≈ 33.2 µM). Further, the MIC in the data set with B. subtilis [11] was determined as 31.2 µg/mL (≈ 66.4 µM). Moreover, the MFC with A. fumigatus [12] was found to be 62.5 µg/mL (≈ 133 µM). Besides, the MBC with S. enterica [13] came out at 15.6 µg/mL (≈ 33.2 µM). Further, the MIC in the data set on E. coli [14] is 15.6 µg/mL (≈ 33.2 µM).

Molecule `C/C(=N/c1c(C)n(C)n(-c2ccccc2)c1=O)c1ccc(/N=N\c2c[nH]c3ccc([N+](=O)[O-])cc23)cc1` [DS-6, 1,5-Dimethyl-4-((Z)-(1-(4-((Z)-(5-nitro-1H-indol-3-yl)diazenyl)phenyl)ethylidene)amino)-2-phenyl-1H-pyrazol-3(2H)-one] returned a melting point of 170 to 175 °C. Besides, the MBC in the data set with B. subtilis [1] was 62.5 µg/mL (≈ 127 µM). The MBC with S. aureus [2] amounted to 31.2 µg/mL (≈ 63.3 µM). For the same molecule, the IC50 in the data set with MDA MB 231 (setting [15]) worked out at 119 ± 1.92 µg/mL (≈ 241 µM). In the data set on K562, this molecule came in with an IC50 of 188 ± 1.94 µg/mL (≈ 380 µM). This molecule also yielded an IC50 in the data set on HCT 116 of 139 ± 4.29 µg/mL (≈ 282 µM). Also, in the data set on A. niger [3], the MFC was 125 µg/mL (≈ 253 µM). The MIC in the data set on A. niger [4] was determined as 62.5 µg/mL (≈ 127 µM). Further, the MIC with S. aureus [6] was 31.2 µg/mL (≈ 63.3 µM). In the data set on E. coli [7], this molecule displayed an MBC of 3.9 to 7.81 µg/mL (≈ 7.9 to 15.8 µM). Moreover, the MIC with A. fumigatus [8] amounted to 31.2 µg/mL (≈ 63.3 µM). In addition, the MIC with K. pneumonia [9] was 7.81 µg/mL (≈ 15.8 µM). Moreover, the MIC in the data set on S. enterica [10] is 31.2 µg/mL (≈ 63.3 µM). In the data set on B. subtilis [11], the MIC stood at 31.2 µg/mL (≈ 63.3 µM). Also, the MFC in the data set on A. fumigatus [12] came out at 125 µg/mL (≈ 253 µM). In the data set with S. enterica [13] (S. enterica, MBC), the MBC turned out to be 31.2 µg/mL (≈ 63.3 µM). For the same molecule, in the data set with HEK-293, the IC50 came to 257.8 ± 0.57 µg/mL (≈ 522 µM). Besides, the MIC with E. coli [14] amounted to 1.95 µg/mL (≈ 3.95 µM).

What is called IC50 is the concentration at which inhibition is half-maximal. By MIC is commonly meant the lowest concentration that inhibits growth of the organism. In general, melting point refers to the temperature, or range, at which the solid turns liquid.
